Values joined by “and” are separate entries in the source; they are usually repeats but may differ in a detail not shown here. Equal values may be shown once.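 These data come from cells grown in 96-well plates and exposed to compound for 48 hours at five concentrations. GI50 = concentration required for 50% inhibition of growth. The concentration for full growth arrest is given as TGI.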
Experiments:
Test in all cases: NCI-60 cell line screen, 48 h
KM12 colon = test system: KM12 colon
HCT-116 colon = test system: HCT-116 colon
RXF 393 renal = test system: RXF 393 renal
SF-268 CNS = test system: SF-268 CNS
HCT-15 colon = test system: HCT-15 colon
SK-OV-3 ovarian = test system: SK-OV-3 ovarian
SF-539 CNS = test system: SF-539 CNS
SF-295 CNS = test system: SF-295 CNS
ACHN renal = test system: ACHN renal
EKVX NSCLC = test system: EKVX NSCLC

| Compound | GI50 (KM12 colon) | TGI (KM12 colon) | GI50 (HCT-116 colon) | TGI (HCT-116 colon) | GI50 (RXF 393 renal) [µM] | TGI (RXF 393 renal) [µM] | GI50 (SF-268 CNS) | TGI (SF-268 CNS) | GI50 (HCT-15 colon) | TGI (HCT-15 colon) | GI50 (SK-OV-3 ovarian) | TGI (SK-OV-3 ovarian) | GI50 (SF-539 CNS) [µM] | TGI (SF-539 CNS) [µM] | GI50 (SF-295 CNS) | TGI (SF-295 CNS) | GI50 (ACHN renal) | TGI (ACHN renal) | TGI (EKVX NSCLC) | GI50 (EKVX NSCLC) |
| --- | --- | --- | --- | --- | --- | --- | --- | --- | --- | --- | --- | --- | --- | --- | --- | --- | --- | --- | --- | --- |
| Cc1cccc2c(C3=C(c4cn(C)c5ccccc45)C(=O)NC3=O)cn(C)c12 | > 20.8 µM | > 25 µM | > 15.8 µM | > 25 µM | 6.16 | 24.4 | 13.6 µM | > 25 µM | 11.5 µM | > 25 µM | > 22.5 µM | > 25 µM | 19.1 | > 25 | > 24 µM | > 25 µM | 13.1 µM | > 25 µM |  |  |
| CC(C)N(C(=O)C12C3C4C1C1C2C3C41C(=O)C(C)(C)C)C(C)C (stereo unspecified) |  | > 100 µM |  | > 100 µM |  |  |  | > 100 µM |  |  |  | > 100 µM |  | > 100 |  | > 100 µM |  | > 100 µM | > 100 µM |  |
| CCOC(=O)/C(=C/CC/C(C)=C/CC/C(C)=C/CCc1ccoc1)CC(=O)N1CCCCC1 | 4.59 µM | 19.2 µM | 2.66 µM | 10.2 µM | 2.45 | 9.62 | 8.91 µM | 38.3 µM | 3.01 µM | 12.5 µM | 8.27 µM | 36.1 µM | 7.9 | 20.9 | 1.55 µM | 5.08 µM | 2.93 µM | 10.3 µM |  |  |
| C[C@@H](C1CC[C@H]2[C@@H]3[C@@H]4O[C@@H]4[C@@]4(O)CC=CC(=O)[C@]4(C)[C@H]3C[C@H](O)[C@]12C)[C@H]1C[C@]2(C)O[C@]2(C)C(=O)O1 (stereo partly specified) |  | > 100 µM |  | > 100 µM |  |  |  | > 100 µM |  | > 100 µM |  | > 100 µM |  | > 100 |  | > 100 µM |  | > 100 µM | > 100 µM |  |
| C[C@@H](O)[C@@H](C)Oc1nc(Nc2ccc(S(=N)(=O)C3CC3)cc2)ncc1C(F)(F)F (stereo partly specified) | 0.0242 µM | 1.16 µM | 0.0228 µM | > 100 µM |  |  | 0.03 µM | 0.726 µM | 0.0329 µM | > 46.8 µM | 0.0891 µM | > 100 µM | 0.0162 | 0.0384 | 0.0312 µM | > 55.3 µM | 0.0261 µM | > 100 µM |  |  |
| C/C(NNC(=O)c1ccccc1O)=C1\C=Nc2ccccc2S1 |  | > 100 µM |  | > 100 µM |  |  |  | > 100 µM |  |  |  | > 100 µM |  | 7.81 |  | > 100 µM |  | > 100 µM | > 100 µM |  |
| Cc1cc2c(cc1Cl)SC(N(c1ccccc1Cl)S(=O)(=O)c1ccc(Br)s1)=NS2(=O)=O | 25.8 µM | 83.4 µM | 16.5 µM | 34.3 µM |  |  | 12.7 µM | 30.7 µM | 15.5 µM | 32.7 µM | 24.8 µM | > 100 µM | 9.92 | 23.7 | 30.7 µM | > 100 µM | 22.4 µM | 84.7 µM | 75.5 µM | 21.9 µM |
| C/C=C1/CN2CCC34C(=C(C(=O)OC)C1CC23)Nc1ccc(O)cc14 (stereo unspecified) |  | > 100 µM |  | > 100 µM |  |  |  | > 100 µM |  | > 100 µM |  | > 100 µM |  | > 100 |  | > 100 µM |  | > 100 µM | > 100 µM |  |
| Cc1ccc2nc(NC(=O)C(=O)C(C(=O)c3ccc4ccccc4c3)C3OC(=O)c4ccccc43)sc2c1 (stereo unspecified) |  | 37.4 µM |  | 20.8 µM |  | 8.79 |  | 31.3 µM |  |  |  | > 100 µM |  | 9.21 |  | 21 µM |  | 46.1 µM | 44.5 µM |  |
| O=C(Nc1ccc(OS(=O)(=O)c2ccc(F)cc2)cc1)C12CC3CC(CC(C3)C1)C2 | 1.15 µM | > 100 µM | 0.929 µM | > 100 µM | 3.15 | 22.5 | 19.8 µM | > 100 µM | 0.558 µM | > 100 µM | 10.3 µM | 47.3 µM | 0.75 | > 100 | 1.57 µM | 29.1 µM | 14.6 µM | > 100 µM |  |  |
| CC1CC(C[N+](=O)[O-])CC2(C1)OCCO2 (stereo unspecified) |  | > 100 µM |  | > 100 µM |  | > 100 |  | > 100 µM |  | > 100 µM |  | > 100 µM |  | > 100 |  |  |  | > 100 µM |  |  |
| CC(=O)NNc1nc(C)c(C(=O)NNC(=O)C(=O)Nc2ccc(Cl)c([N+](=O)[O-])c2)s1 |  | > 100 µM |  | > 100 µM |  |  |  | > 100 µM |  | > 100 µM |  | > 100 µM |  | > 100 |  | > 100 µM |  | > 100 µM | > 100 µM |  |
| CCOC(=O)c1oc2c(OC)ccc3c2c1CCC3 |  | > 100 µM |  |  |  | > 100 |  | > 100 µM |  | > 100 µM |  | > 100 µM |  | > 100 |  | > 100 µM |  | > 100 µM | > 100 µM |  |
| Cc1ccc2c(c1)[n+](=O)c(C(=O)c1cccs1)c(C(F)(F)F)n2[O-] | 0.849 µM and 1.4 µM | 3.79 µM and 16.3 µM | 2.47 µM and 0.731 µM | 50 µM and 15.9 µM |  |  | 0.881 µM and 0.108 µM | 3.31 µM and 0.511 µM | 0.753 µM and 0.618 µM | 7 µM and 14.8 µM | 1.56 µM and 2.34 µM | 11.2 µM and 19.4 µM | 0.997 | 2.36 | 0.786 µM and 0.842 µM | 2.46 µM and 5.87 µM | 1.25 µM and 0.541 µM | 6.47 µM and 4.68 µM | 1.87 µM and 0.746 µM | 0.729 µM and 0.278 µM |
| Nc1nc(N)c2c(n1)NC(c1sc(Cl)nc1Cl)CC(c1ccccc1)=N2 (stereo unspecified) | 3.79 µM | 15.3 µM | 3.7 µM | 13.9 µM | 2.48 | 9.5 | 5.68 µM | 22.5 µM | 3.05 µM | 15.2 µM | 3.6 µM | 15.3 µM | 2.69 | 9.97 | 3.06 µM | 13.3 µM | 4.56 µM | 16.8 µM |  |  |
| CCCCCCCCSC(=O)NCCCC |  | > 100 µM |  |  |  | 69.3 |  | > 100 µM |  | 96.8 µM |  | > 100 µM |  | > 100 |  | > 100 µM |  | > 100 µM | 75.4 µM |  |
| CC12Nc3ccccc3C1=C(c1ccccc1)CC1C(=O)OC(=O)C12 (stereo unspecified) |  | > 100 µM |  | > 100 µM |  | > 100 |  | > 100 µM |  | > 100 µM |  |  |  | > 100 |  | > 100 µM |  | > 100 µM | > 100 µM |  |

— PubChem BioAssay (NCI)
